The test deals with fibromyalgia pain in soft tissue regions and myofacial regions. Particulars: for patient-reported pain levels in the treated regions: daily use in a topical form on skin adjacent to regions where pain is experienced, during treatment; for patient-reported pain levels after treatment is halted: treatment halted after several months, report weeks later. An excerpt:
The following prophetic examples are of cases that address the painful experiences associated with fibromyalgia. The examples also describe a new, safe, simple and until now, an unknown pharmaceutical solution to the problem of fibromyalgia syndrome: the novel use of vasodilators such as calcium channel blockers, ACE inhibitors, and angiotensin receptor blockers. Vasodilators are not analgesics, but they resolve or mitigate the pain associated with fibromyalgia.
A patient is diagnosed with fibromyalgia, and suffers from pain in soft tissue regions and myofacial regions. […] After several months, treatment is halted.
A patient is diagnosed with fibromyalgia, and suffers from pain in soft tissue regions and myofacial regions. Daily use of Amlodipine in a topical form is prescribed for application to skin adjacent to regions where pain is experienced. […] After several months, treatment is halted.
A patient is diagnosed with fibromyalgia, and suffers from pain in soft tissue regions and myofacial regions. Daily use of enalapril in a topical form is prescribed for application to skin adjacent to regions where pain is experienced. […] After several months, treatment is halted.
A patient is diagnosed with fibromyalgia, and suffers from pain in soft tissue regions and myofacial regions. Daily use of lisinopril in a topical form is prescribed for application to skin adjacent to regions where pain is experienced. […] After several months, treatment is halted.
A patient is diagnosed with fibromyalgia, and suffers from pain in soft tissue regions and myofacial regions. Daily use of losartan in a topical form is prescribed for application to skin adjacent to regions where pain is experienced. […] After several months, treatment is halted.
A patient is diagnosed with fibromyalgia, and suffers from pain in soft tissue regions and myofacial regions. Daily use of irbesartan in a topical form is prescribed for application to skin adjacent to regions where pain is experienced. […] After several months, treatment is halted.

SMILES strings stand for the structures.

In the case of `CCOC(=O)[C@H](CCc1ccccc1)N[C@@H](C)C(=O)N1CCC[C@H]1C(=O)O` [enalapril], the “patient-reported pain levels in the treated regions” value was “reduction in pain levels” and the “patient-reported pain levels after treatment is halted” value is “reduction in pain levels has been maintained”.

In the case of `CCCCc1nc(Cl)c(CO)n1Cc1ccc(-c2ccccc2-c2nn[nH]n2)cc1` [losartan], the “patient-reported pain levels in the treated regions” value is listed as “reduction in pain levels” and the “patient-reported pain levels after treatment is halted” value is listed as “reduction in pain levels has been maintained”.

With `NCCCC[C@H](N[C@@H](CCc1ccccc1)C(=O)O)C(=O)N1CCC[C@H]1C(=O)O` [lisinopril], the “patient-reported pain levels in the treated regions” value is reported as “reduction in pain levels” and the “patient-reported pain levels after treatment is halted” value is given as “reduction in pain levels has been maintained”.

For the molecule `CCCCC1=NC2(CCCC2)C(=O)N1Cc1ccc(-c2ccccc2-c2nnn[nH]2)cc1` [irbesartan], the “patient-reported pain levels in the treated regions” value was “reduction in pain levels” and the “patient-reported pain levels after treatment is halted” value is listed as “reduction in pain levels has been maintained”.
